Results as given in patent publication US6667053B1, “D and L etherlipid stereoisomers and liposomes” (Elan Pharmaceuticals, Inc., priority 1996, dated 2003).
Where two headings read alike, the source gives them in different places. Each block holds one compound with its values, some of them ahead of it.

What was measured:
Format in all cases: cell-based
[1] = tested on: platelets in dog whole blood; assay: Platelet aggregation response in whole blood (impedance aggregometer), dog blood
Procedure: (§1) The platelet aggregation effect of the liposomes in the whole blood of various mammals was evaluated using a CHRONO-LOG Dual Chamber Whole Blood Aggregometer Model 560, according to the following protocol:
(§2) Venous blood was collected using 3.8% sodium citrate in a Vacutainer. Dilution ratio is 1 to 9 (citrate solution: blood). The effect of D and L etherlipid and liiposmes containing them on aggregation of platelets from rats, dogs, monkeys and humans was tested.
(§3) Immediately following collection the blood was mix by gentle inversion (maintain at room temperature). Prewarm 500 ul saline in disposable plastic cuvettes. Add 500 ul whole blood or PRP. Add disposable siliconized mini stir bar. Warm diluted blood 5 min at 37° C. prior to testing. Add test samples to aggregation chambers and insert impedance probes.
(§4) Platelet aggregation response was determined by increased resistance using an impedance electrode in a platelet suspension. Resistance measurements were taken 6-8 minutes after addition of the test article to 1 ml whole blood or platelet rich plasma (PRP).

[2] = tested on: platelets in rat whole blood; assay: Platelet aggregation response in whole blood (impedance aggregometer), rat blood
Procedure: as §1, §2, §3, §4

[3] = tested on: platelets in human whole blood; assay: Platelet aggregation response in whole blood (impedance aggregometer), human blood
Procedure: as §1, §2, §3, §4

[4] = tested on: PAF binding sites on dog blood platelets; assay: Platelet aggregation response in dog whole blood with and without CV-6209; settings: PAF alone, concentration 0.05 μM
Procedure: as §1, §3, §4
To further investigate the platelet aggregation response triggered by the L-ether lipid in dog whole blood, the effect of a compound (CV-6209) that binds PAF binding sites on dog blood platelets was studied.

[5] = tested on: A549, a human non-small cell lung carcinoma cell line; assay: In vitro growth inhibition, Sulforhodamine B (SRB) assay, A549; settings: read-out: In vitro growth inhibition GI50 (± sd), A549
Procedure: (§5) The anti-tumor activities of the D and L etherlipid were evaluated against A549, a human non-small cell lung carcinoma cell line; MCF 7, a human breast carcinoma line and MCF 7/adr, multi-drug resistant human breast carcinoma; were obtained from the DCT Tumor Repository (NCI-Frederick Cancer Research Facility, Frederick, Md.). U-937, a human histiocytic lymphoma cell line, was obtained from the American Type Culture Collection. Stock cultures of these human cell lines were maintained in RPMI 1640 tissue culture media (Life Technologies, Gaithersburg, Md.) supplemented with 10% heat inactivated fetal bovine serum (Life Technologies) and 10 mM HEPES (Life Technologies). Cultures were maintained in exponential growth in a humidified incubator with 5% CO2 and were passaged twice weekly. L1210 and L1210/vmdr, murine lymphocytic leukemias, (Yale University School of Medicine). L1210/vmdr, a selected line of L1210, was transfected with a plasmid (pHaMDR1/A) containing the mdr 1 gene.
(§6) The detailed methodology of the SRB assay is described elsewhere (2,3). […] The bound stain was solubilized with 100 ul of 10 mM Tris buffer (Sigma) and the optical density was read spectrophotometrically at 490 nm (Microplate Reader Model 3550-UV, Biorad, Hercules, Calif.). […] Percent growth was calculated as follows: (T−T0)/(C−T0)×100 where (T)=mean optical density of treated wells at a given drug concentration, (T0)=mean optical density of time zero wells, and (C)=mean optical density of control wells, or if T<T0 where cell killing has occurred, then percent cell death can be calculated as follows: (T−T0)/(T0)×100. By varying drug concentration, dose response curves were generated and the GI50 values were calculated. The GI50 values for each experiment were calculated using data obtained from three duplicate wells on two separate plates. The mean GI50 values and standard deviations were then calculated from the GI50's from each independent experiment.

Lewis Lung = assay: In vitro growth inhibition, SRB assay, Lewis Lung; settings: 72 hrs treatment, read-out: In vitro growth inhibition GI50 (± sd), Lewis Lung
Procedure: (§7) The detailed methodology of the SRB assay is described elsewhere (2,3). Briefly, 96-well microtiter plates were inoculated with 100 ul of the above cell lines at optimal cell densities, 3500-15,000 cells/well, in medium (RPMI 1640 with L-glutamine (Mediatech, Herndon, Va.)) supplemented with 10% fetal bovine serum (Life Technologies) for all cell lines. The plates were then incubated for 24 hours at 37° C., 100% humidity, and 5% CO2. After the 24 hour incubation, 100 μl of medium was added to the designated time zero plates, then the plates containing adherent cell lines were acid fixed with 50 ul of 50% trichloroacetic acid (wt/vol) (Sigma, St. Louis, Mo.) and refrigerated at 4° C. for 1 hour (the suspension cell lines were acid fixed with 80% trichloroacetic acid). The supernatant was discarded and the plates were rinsed 6 times with water and air dried. Then the test compound was added (100 ul aliquots) to the remaining (non-fixed) plates at 2 times the predetermined highest concentration and serially diluted across the plates. Growth control wells received an additional 100 ul of medium. […] The bound stain was solubilized with 100 ul of 10 mM Tris buffer (Sigma) and the optical density was read spectrophotometrically at 490 nm (Microplate Reader Model 3550-UV, Biorad, Hercules, Calif.). […] Percent growth was calculated as follows: (T−T0)/(C−T0)×100 where (T)=mean optical density of treated wells at a given drug concentration, (T0)=mean optical density of time zero wells, and (C)=mean optical density of control wells, or if T<T0 where cell killing has occurred, then percent cell death can be calculated as follows: (T−T0)/(T0)×100. By varying drug concentration, dose response curves were generated and the GI50 values were calculated. The GI50 values for each experiment were calculated using data obtained from three duplicate wells on two separate plates. The mean GI50 values and standard deviations were then calculated from the GI50's from each independent experiment.

[6] = tested on: MCF 7, a human breast carcinoma line; assay: In vitro growth inhibition, SRB assay, MCF7; settings: 72 hrs treatment, read-out: In vitro growth inhibition GI50 (± sd), MCF7
Procedure: as §5, §6

[7] = tested on: MCF 7/adr, multi-drug resistant human breast carcinoma; assay: In vitro growth inhibition, SRB assay, MCF7/adr; settings: 72 hrs treatment, read-out: In vitro growth inhibition GI50 (± sd), MCF7/adr
Procedure: as §5, §6

[8] = tested on: L1210 murine lymphocytic leukemia; assay: In vitro growth inhibition, SRB assay, L1210; settings: read-out: In vitro growth inhibition GI50 (± sd), L1210
Procedure: as §5, §6

[9] = tested on: L1210/vmdr murine lymphocytic leukemia (mdr 1 transfected); assay: In vitro growth inhibition, SRB assay, L1210/vmdr; settings: for GI50: 72 hrs treatment, read-out: In vitro growth inhibition GI50 (± sd), L1210/vmdr
Procedure: as §5
as §7, with “dried.” for “dried. Then the test compound was added (100 ul aliquots) to the remaining (non-fixed) plates at 2 times the predetermined highest concentration and serially diluted across the plates. Growth control wells received an additional 100 ul of medium.”

[10] = tested on: U-937, a human histiocytic lymphoma cell line; assay: In vitro growth inhibition, SRB assay, U937; settings: read-out: In vitro growth inhibition GI50 (± sd), U937
Procedure: as §5, §6

[11] = Homo sapiens, A549, 72 hrs treatment
[12] = Mus musculus, L1210, 72 hrs treatment
[13] = Homo sapiens, U-937, 72 hrs treatment

Compound: 1-O-2-acetyl-sn-glycero-3-phosphocholine [PAF]
Dog Blood Response ([1]; concentration 0.05 μM): 14.8 Ω
Rat Blood Response ([2]; concentration 0.05 μM): 0 Ω
Human Blood Response ([3]; concentration 0.05 μM): 6.0 Ω
Dog Blood Response [4]: 23.5 Ω

Compound: CCCCCCCCCCCCCCCCCCOCC(COP(=O)([O-])OCC[N+](C)(C)C)OC (racemic) [rac-EL]
GI50 ([5]; 72 hrs treatment): 8.36 ± 0.67 µM
GI50 (Lewis Lung): 27.1 ± 1.98 µM
GI50 [6]: 15.9 ± 6.41 µM
GI50 [7]: 27.8 ± 0.3 µM
GI50 ([8]; 72 hrs treatment): 4.18 ± 1.38 µM
GI50 [9]: 6.09 ± 2.15 µM
GI50 ([10]; 72 hrs treatment): 1.5 ± 0.22 µM

Compound: Nc1ncnc2c1ncn2[C@@H]1O[C@H](COP(=O)(O)OP(=O)(O)O)[C@@H](O)[C@H]1O [ADP]
Dog Blood Response ([1]; concentration 20 μM): 4.0 Ω
Rat Blood Response ([2]; concentration 20 μM): 2.0 Ω
Human Blood Response ([3]; concentration 20 μM): 6.3 Ω

GI50 [5, 11]: 7.96 ± 0.57 µM
GI50 ([6]; Homo sapiens, MCF7a): 14.6 ± 5.92 µM
GI50 ([7]; Homo sapiens, NCI/ADR-RES): 25.1 ± 1.69 µM
GI50 [8, 12]: 3.6 ± 1.59 µM
GI50 ([9]; Mus musculus): 4.87 ± 0.77 µM
GI50 [10, 13]: 1.41 ± 0.29 µM
Compound: CCCCCCCCCCCCCCCCCCOC[C@@H](COP(=O)([O-])OCC[N+](C)(C)C)OC [D-EL, 3-O-octadecyl-2-O-methyl-sn-glycero-1-phosphocholine]
GI50 (Lewis Lung; Lewis lung carcinoma): 25.4 ± 0.95 µM
activity against L1210/vmdr compared to L-EL and the racemate ([9]; 72 hrs): slight but statistically significant greater activity

GI50 [5, 11]: 9.07 ± 0.39 µM
GI50 ([6]; Homo sapiens, MCF7a): 18.6 ± 4.57 µM
GI50 ([7]; Homo sapiens, NCI/ADR-RES): 27.9 ± 2.1 µM
GI50 [8, 12]: 4.77 ± 0.41 µM
GI50 ([9]; Mus musculus): 8.77 ± 1.47 µM
GI50 [10, 13]: 1.53 ± 0.42 µM
Compound: CCCCCCCCCCCCCCCCCCOC[C@H](COP(=O)([O-])OCC[N+](C)(C)C)OC [L-EL, 1-O-octadecyl-2-O-methyl-sn-glycero-3-phosphocholine]
GI50 (Lewis Lung; Lewis lung carcinoma): 29.1 ± 2.05 µM

Compound: collagen
Dog Blood Response ([1]; concentration 20 μg/μL): 12 Ω
Rat Blood Response ([2]; concentration 20 μg/μL): 34.1 Ω
Human Blood Response ([3]; concentration 20): 36 Ω
